Laboratory results: patent US10829499B2, “Tetracyclic heterocycle compounds useful as HIV integrase inhibitors” (MERCK SHARP & DOHME CORP., priority 2016, dated 2020)
Like-named read-outs stand apart in the source and are kept apart here.

Test system: HIV-1 (NL4-3 strain)
Test: Assay for Inhibition of HIV Replication (kinetic assay, MT4-gag-GFP reporter cell line; VIKING)
Type: cell-based
Procedure: This assay is a kinetic assay that employs a reporter cell line (MT4-gag-GFP) to quantify the number of new cells infected in each round of replication.
MT4-GFP cells (250,000 cells/ml) were bulk-infected with HIV-1 (NL4-3 strain) at low multiplicity of infection (MOI) in RPMI cell culture medium+10% FBS for 24 hours. Cells were then washed once in RPMI cell culture medium+10% FBS and resuspended in RPMI cell culture medium+0% or 10% or 100% normal human serum (NHS). Test compounds were serial-diluted in DMSO on an ECHO® liquid handler. The infected MT4-GFP cells were added to a 384-well poly-D-lysine coated black plate with clear bottom in which the diluted test compounds were placed. The cells were seeded at 8,000 cells per well and the final DMSO concentration was 0.4%. The infected cells (Green GFP cells) were quantified at both 24 and 48 hours post incubation using Acumen eX3. Viral reproductive ratio (R0) was determined using the number of infected cells at 48 hours divided by the number of infected cells at 24 hours. Percent viral growth inhibition was calculated by [1-(R-Rtripledrug),/(RDMSO-Rtripledrug)]*100. Compound potency IP or IC50 was determined by a 4-parameter dose response curve analysis. In vitro potency in the cell-based assay in the absence of normal human serum (NHS) and the presence of 100% NHS.

[1] = MT4-GFP cells infected with HIV-1 NL4-3, 0% normal human serum (NHS), read-out: VIKING IP50 (nM) with 0% NHS
[2] = MT4-GFP cells infected with HIV-1 NL4-3, 100% normal human serum (NHS), read-out: VIKING IP50 (nM) with 100% NHS
[3] = Human immunodeficiency virus 1, NL43, MT4-GFP cells infected with HIV-1 NL4-3, 0% normal human serum (NHS), read-out: VIKING IP50 (nM) with 0% NHS
[4] = Human immunodeficiency virus 1, NL43, MT4-GFP cells infected with HIV-1 NL4-3, 100% normal human serum (NHS), read-out: VIKING IP50 (nM) with 100% NHS

| SMILES | IC50 [1] [nM] | IC50 [2] [nM] | IC50 [3] [nM] | IC50 [4] [nM] |
| --- | --- | --- | --- | --- |
| O=C(NCc1ccc(F)cc1F)c1c2n3c(c(O)c1=O)C(=O)N1CCCOC1C3CC2 (single isomer, unassigned) [Compound 57] | 0.919 | 871 | – | – |
| O=C(NCc1c(F)cc(F)cc1F)c1c2n3c(c(O)c1=O)C(=O)N1C4CCC(C4)OC1C3CC2 (stereo not shown) [Compound 170] | 2.59 | 5360 | – | – |
| C[C@H]1CN2C(=O)c3c(O)c(=O)c(C(=O)NCc4cccc(Cl)c4F)c4n3C(CC4)C2N1C (stereo partly shown) [Compound 104] | 0.397 | 71.4 | – | – |
| C[C@@H]1COC2C3CCc4c(C(=O)NCc5ccc(F)cc5F)c(=O)c(O)c(n43)C(=O)N21 (stereo partly shown) [Compound 32] | – | – | 0.671 | 101 |
| O=C(NCc1ccccc1F)c1c2n3c(c(O)c1=O)C(=O)N1CCOC1C3CC2 (single isomer, unassigned) [Compound 11] | 1.09 | 589 | – | – |
| CCNC1CC2C3OCCCN3C(=O)c3c(O)c(=O)c(C(=O)NCc4c(F)cc(F)cc4F)c1n32 (stereo not shown) [Compound 182] | 6.63 | 44.9 | – | – |
| O=C(NCc1ccc(F)c(Cl)c1F)c1c2n3c(c(O)c1=O)C(=O)N1C4CCC(C4)OC1C3CC2 (stereo not shown) [Compound 157] | 12.9 | 733 | – | – |
| CCNC1C[C@@H]2[C@H]3OC4CCC(C4)N3C(=O)c3c(O)c(=O)c(C(=O)NCc4ccc(F)cc4F)c1n32 (stereo partly shown) [Compound 174] | – | – | 30.2 | 114 |
| CCNC1CC2C3OCCCN3C(=O)c3c(O)c(=O)c(C(=O)NCc4cccc(Cl)c4F)c1n32 (stereo not shown) [Compound 197] | 14 | 15100 | – | – |
| C[C@H]1COC2C3CCc4c(C(=O)NCc5ccc(F)cc5F)c(=O)c(O)c(n43)C(=O)N21 (single isomer, unassigned) [Compound 27] | – | 956 | 0.313 | – |
| O=C(NCc1ccc(F)c(Cl)c1F)c1c2n3c(c(O)c1=O)C(=O)N1C4CCC(C4)OC1C3CC2 (stereo not shown) [Compound 156] | 11.8 | 5270 | – | – |
| O=C(NCc1cccc(Cl)c1F)c1c2n3c(c(O)c1=O)C(=O)N1CCCOC1C3CC2 (single isomer, unassigned) [Compound 49] | – | – | 0.96 | 1190 |
| CN1CCCN2C(=O)c3c(O)c(=O)c(C(=O)NCc4cccc(Cl)c4F)c4n3C(CC4)C12 (single isomer, unassigned) [Compound 84] | 0.762 | 37.5 | – | – |
| CCNC1CC2C3OCCCN3C(=O)c3c(O)c(=O)c(C(=O)NCc4cccc(F)c4F)c1n32 (stereo not shown) [Compound 185] | – | – | 11.7 | 1160 |
| CCNC1CC2C3OCCCN3C(=O)c3c(O)c(=O)c(C(=O)NCc4cccc(F)c4F)c1n32 (stereo not shown) [Compound 192] | 8.76 | 92.3 | – | – |
| CN1CCCN2C(=O)c3c(O)c(=O)c(C(=O)NCc4cccc(Cl)c4F)c4n3C(CC4)C12 (single isomer, unassigned) [Compound 87] | 0.875 | 1000 | – | – |
| COC1CC2C3OCCN3C(=O)c3c(O)c(=O)c(C(=O)NCc4ccc(F)cc4F)c1n32 (single isomer, unassigned) [Compound 79] | 1.79 | 135 | – | – |
| CCNC1CC2C3OCCCN3C(=O)c3c(O)c(=O)c(C(=O)NCc4ccc(F)cc4F)c1n32 (stereo not shown) [Compound 207] | 5.21 | 140 | – | – |
| CC(=O)N1C2C3CCc4c(C(=O)NCc5cccc(Cl)c5F)c(=O)c(O)c(n43)C(=O)N2C[C@@H]1C (stereo partly shown) [Compound 123] | 2.56 | 58.6 | – | – |
| C[C@H]1CN2C(=O)c3c(O)c(=O)c(C(=O)NCc4cccc(Cl)c4F)c4n3C(CC4)C2O1 (single isomer, unassigned) [Compound 45] | 5.81 | 486 | – | – |
| C[C@H]1CNC2C3CCc4c(C(=O)NCc5cccc(Cl)c5F)c(=O)c(O)c(n43)C(=O)N21 (stereo partly shown) [Compound 88] | – | – | 0.705 | 13.7 |
| O=C(NCc1cccc(Cl)c1F)c1c2n3c(c(O)c1=O)C(=O)N1C4CCC(C4)OC1C3CC2 (stereo not shown) [Compound 153] | 4.53 | 95.5 | – | – |
| CCNC1CC2C3OCCCN3C(=O)c3c(O)c(=O)c(C(=O)NCc4cccc(Cl)c4F)c1n32 (stereo not shown) [Compound 198] | 5.29 | 96.9 | – | – |
| O=C(NCc1ccccc1F)c1c2n3c(c(O)c1=O)C(=O)N1CCOC1C3CC2 (single isomer, unassigned) [Compound 13] | 0.827 | 5520 | – | – |
| O=C(NCc1ccc(F)c(Cl)c1F)c1c2n3c(c(O)c1=O)C(=O)N1C4CCC(C4)OC1C3CC2 (stereo not shown) [Compound 159] | 5.85 | 89.3 | – | – |

| SMILES | IC50 [1] [nM] | IC50 [2] [nM] | IC50 [3] [nM] | IC50 [4] [nM] |
| --- | --- | --- | --- | --- |
| C[C@H]1CN2C(=O)c3c(O)c(=O)c(C(=O)NCc4cccc(Cl)c4F)c4n3C(CC4)C2N1C (stereo partly shown) [Compound 103] | 1.45 | 15.4 | – | – |
| CCNC1C[C@H]2[C@H]3OC4CCC(C4)N3C(=O)c3c(O)c(=O)c(C(=O)NCc4ccc(F)cc4F)c1n32 (stereo partly shown) [Compound 177] | 11.2 | 191 | – | – |
| O=C(NCc1ccc(F)cc1)c1c2n3c(c(O)c1=O)C(=O)N1CCCOC1C3CC2 (single isomer, unassigned) [Compound 51] | – | 32.6 | 1.25 | – |
| CCNC1CC2C3OCCCN3C(=O)c3c(O)c(=O)c(C(=O)NCc4cccc(F)c4F)c1n32 (stereo not shown) [Compound 190] | 5.26 | 66.4 | – | – |
| O=C(NCc1cccc(Cl)c1F)c1c2n3c(c(O)c1=O)C(=O)N1CCCO[C@H]1[C@H]3CC2 [Compound 47] | – | – | 2.39 | 2680 |
| C[C@@H]1COC2C3CCc4c(C(=O)NCc5ccc(F)cc5F)c(=O)c(O)c(n43)C(=O)N21 (single isomer, unassigned) [Compound 33] | – | – | 0.543 | 1940 |
| O=C(NCc1ccc(F)cc1F)c1c2n3c(c(O)c1=O)C(=O)N1CCCOC1C3CC2 (single isomer, unassigned) [Compound 55] | – | 39.5 | 1.03 | – |
| CN1CCN2C(=O)c3c(O)c(=O)c(C(=O)NCc4ccc(F)cc4F)c4n3C(CC4)C12C (stereo not shown) [Compound 140] | 0.557 | 11.3 | – | – |
| CN1CCCN2C(=O)c3c(O)c(=O)c(C(=O)NCc4ccc(F)cc4F)c4n3C(CC4)C12C (stereo not shown) [Compound 142] | 0.504 | 9.41 | – | – |
| CC(C)N1C[C@H](C)N2C(=O)c3c(O)c(=O)c(C(=O)NCc4cccc(Cl)c4F)c4n3C(CC4)C12 (stereo partly shown) [Compound 115] | – | – | 7.4 | 113 |
| C[C@H]1CNC2C3CCc4c(C(=O)NCc5cccc(Cl)c5F)c(=O)c(O)c(n43)C(=O)N21 (stereo partly shown) [Compound 89] | 0.709 | 120 | – | – |
| CC(=O)N1C[C@H](C)N2C(=O)c3c(O)c(=O)c(C(=O)NCc4cccc(Cl)c4F)c4n3C(CC4)C12 (stereo partly shown) [Compound 120] | 1.19 | 24.5 | – | – |
| O=C(NCc1ccc(F)cc1)c1c2n3c(c(O)c1=O)C(=O)N1C4CCC(C4)OC1C3CC2 (stereo not shown) [Compound 162] | 3.9 | 50.4 | – | – |
| C[C@H]1CN2C(=O)c3c(O)c(=O)c(C(=O)NCc4cccc(Cl)c4F)c4n3C(CC4)C2N1 (stereo partly shown) [Compound 93] | 1.14 | – | – | 49 |
| C[C@H]1CNC2C3CCc4c(C(=O)NCc5ccc(F)cc5F)c(=O)c(O)c(n43)C(=O)N21 (stereo partly shown) [Compound 101] | 1.99 | 23.4 | – | – |
| O=C(NCc1cccc(Cl)c1F)c1c2n3c(c(O)c1=O)C(=O)N1C4CCC(C4)OC1C3CC2 (stereo not shown) [Compound 152] | – | 2100 | 5.52 | – |
| O=C(NCc1ccc(F)cc1F)c1c2n3c(c(O)c1=O)C(=O)N1CCOC1C3CC2 (single isomer, unassigned) [Compound 8] | 1 | 245 | – | – |
| O=C(NCc1cccc(F)c1F)c1c2n3c(c(O)c1=O)C(=O)N1C4CCC(C4)OC1C3CC2 (stereo not shown) [Compound 164] | – | 1390 | 4.89 | – |
| O=C(NCc1c(F)cc(F)cc1F)c1c2n3c(c(O)c1=O)C(=O)N1C4CCC(C4)OC1C3CC2 (stereo not shown) [Compound 169] | 2.71 | 42.9 | – | – |
| C[C@H]1CNC2C3CCc4c(C(=O)NCc5ccc(F)cc5F)c(=O)c(O)c(n43)C(=O)N21 (stereo partly shown) [Compound 99] | – | 19.2 | 2.28 | – |
| CCNC1CC2C3OCCCN3C(=O)c3c(O)c(=O)c(C(=O)NCc4ccc(F)cc4F)c1n32 (stereo not shown) [Compound 201] | 8.98 | 2060 | – | – |
| COC1CC2C3OCCN3C(=O)c3c(O)c(=O)c(C(=O)NCc4ccc(F)cc4F)c1n32 (single isomer, unassigned) [Compound 76] | 1.01 | 17.8 | – | – |
| C[C@H]1CN2C(=O)c3c(O)c(=O)c(-c4nnc(Cc5ccc(F)cc5F)s4)c4n3C(CC4)C2N1 (stereo partly shown) [Compound 131] | 2.33 | 36.1 | – | – |
| O=C(NCc1ccc(F)cc1F)c1c2n3c(c(O)c1=O)C(=O)N1CCOC1C3CC2 (single isomer, unassigned) [Compound 7] | 2.15 | 1410 | – | – |
| C[C@@H]1COC2C3CCc4c(C(=O)NCc5ccc(F)cc5F)c(=O)c(O)c(n43)C(=O)N21 (single isomer, unassigned) [Compound 34] | 0.635 | 1560 | – | – |
